Columns and labels:
[1] = target: PDE 7 (phosphodiesterase VII) (Homo sapiens (Human), UniProt Q13946); experiment: PDE 7 inhibiting effect (3H-cAMP hydrolysis, PDE 7 active fraction from MOLT-4 cells); format: biochemical; settings: PDE 7 fraction from MOLT-4 cells, 0.064 μM cAMP, 10 μM rolipram, 2 hours at 25° C.; read-out: PDE7 IC50
Method in brief: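 PDE7 taken from the soluble fraction of human MOLT-4 T cells (homogenised in pH 7.5 Tris buffer, 100,000×G spin), partially purified on HiTrap Q with a 0–0.8 M NaCl gradient. Inhibition measured as ³H-cAMP hydrolysis, with product separated using Sephadex-QAE in 10 mM HEPES-Na pH 7.0.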

[2] = target: PDE 4 (phosphodiesterase IV); experiment: PDE 4 inhibiting effect (3H-cAMP hydrolysis, PDE 4 active fraction from Balb/c mouse liver); format: biochemical; settings: PDE 4 fraction from Balb/c mice liver, 0.064 μM cAMP, 2 hours at 25° C.; read-out: PDE4 IC50
Method in brief: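 PDE4 was taken from the soluble liver fraction of male Balb/c mice (12 weeks), purified on DEAE sepharose with a sodium acetate gradient. Inhibition was measured as hydrolysis of 3H-cAMP. The reaction was followed by Sephadex-QAE treatment in HEPES-Na pH 7.0.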

Sequence of PDE 7 (phosphodiesterase VII) (Q13946 whole entry): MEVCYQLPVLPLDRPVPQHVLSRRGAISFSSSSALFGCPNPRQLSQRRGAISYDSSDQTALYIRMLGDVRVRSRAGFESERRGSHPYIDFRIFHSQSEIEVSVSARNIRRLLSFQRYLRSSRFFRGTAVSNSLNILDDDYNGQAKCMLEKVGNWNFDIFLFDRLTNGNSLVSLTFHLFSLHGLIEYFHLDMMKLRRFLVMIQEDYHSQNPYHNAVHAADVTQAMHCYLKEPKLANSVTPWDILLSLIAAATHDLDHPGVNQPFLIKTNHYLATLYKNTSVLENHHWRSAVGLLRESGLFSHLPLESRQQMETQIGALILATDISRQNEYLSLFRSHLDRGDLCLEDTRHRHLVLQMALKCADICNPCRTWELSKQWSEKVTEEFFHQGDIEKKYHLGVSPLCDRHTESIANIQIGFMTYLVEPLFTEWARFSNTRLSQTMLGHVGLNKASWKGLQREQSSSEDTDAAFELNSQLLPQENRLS

IC50 [1]: 0.097 µM
IC50 [2]: 28 µM
Structure (SMILES): Cc1nn(C2CCOCC2)c2sc(C(=O)Nc3ccc(N4CCN(C)CC4=O)cc3)cc12 [Example 440, 3-Methyl-N-[4-(4-methyl-2-oxo-piperazinyl)phenyl]-1-tetrahydro-2H-pyran-4-yl-1H-thieno[2,3-c]pyrazole-5-carboxamide]

Reference: US8901315B2, “Thienopyrazole derivative having PDE7 inhibitory activity” (Daiichi Sankyo Company, Limited, priority 2004, dated 2014)
